Measurements as given in patent publication US20190231768A1, “P[…] TREATING DRUG INDUCED DYSKINESIAS” (PRILENIA THERAPEUTICS DEVELOPMENT LTD., priority 2017, published 2019).
Where two headings read alike, the source gives them in different places.

Key:
[1] = tested on: MPTP-lesioned macaques with L-DOPA-induced dyskinesia
Protocol: The study was conducted in two separate experiments. […] Animals: Eight cynomolgus monkeys (Macaca fascicularis, 8-14 years of age, 3.0-4.8 kg, Suzhou Xishan-Zhongke Laboratory Animal Company, PRC) were used in this study. Fresh fruit, primate pellets and water were available ad libitum other than at times of overnight fasting (from 5 pm) prior to days of behavioral assessment. The housing rooms were subject to a 12-hour light-dark cycle (lights on 7 a.m.), 20-25° C. in a room containing only animals of the same sex.
MPTP administration and development of motor complications: Animals received once-daily subcutaneous injection of MPTP (0.2 mg/kg in 0.9% sterile-saline, Sigma-Aldrich, Oakville, ON, Canada) for 8-30 days. A parkinsonian syndrome was then allowed to develop over at least a 90-day period, during which time additional MPTP administrations were given as necessary, until animals reached moderate to marked levels of disability. […] MPTP lesions were allowed to stabilize for a minimum of a further 60-day prior to commencing induction of L-DOPA-induced motor complications. LID, including both choreiform and dystonic dyskinesia, were evoked by chronic L-DOPA treatment (25 mg/kg, Madopar™, Roche, L-DOPA: benserazide, ratio 4:1) for at least 4-months. During this same period animals were acclimatized to the experimental setting, trained to provide blood samples (while restrained in chair) and to receive administration of treatment by oral, intravenous or subcutaneous routes.
The response to this dose of L-DOPA was assessed to ensure stability and reproducibility within each animal on successive L-DOPA administrations.
For both studies, on the day before behavioral observations, food was removed overnight, from 5 p.m. On days of behavioral assessment, treatments were administered to the animals in their home cages. Animals were then transferred to an observation cage for behavioral assessment. […] The effects of treatments on parkinsonian disability, dyskinesia, duration and quality of anti-parkinsonian benefit (on-time) and activity were assessed and analyzed for a period of 6 hours (h).
Assessment of parkinsonian disability, dyskinesia (chorea and dystonia) and activity: Animals were transferred to individual observation cages (1.5×1.0×1.1 m) and their behavior recorded on HD-video. Rating scales for parkinsonism and dyskinesia adapted from their clinical counterparts (UPDRS pt. III and UDysRS respectively) were used to assess recordings via post-hoc analysis by a movement disorders neurologist blinded to treatment. […] Dyskinesia, representative of the maximum of either chorea or dystonia was scored as 0—absent, 1—mild, 2—moderate, 3—marked or 4—severe. Parkinsonian disability and dyskinesia were assessed for 5-min every 10-min, the score given being most representative of each 5-min observation period. Scores were summed for each hour for time-course analyses and across the entire observation period (0-6 h).
The duration of anti-parkinsonian action, on-time, was defined as the number of minutes for which the bradykinesia score was zero. In addition, the duration of on-time associated with dyskinesia of varying severity was calculated as follows. On-time with disabling dyskinesia, ‘bad’-on-time was calculated the number of minutes for which the bradykinesia score was zero while the dyskinesia score was greater than 2. Meanwhile, on-time without disabling dyskinesia, ‘good’-on-time represents the number of minutes for which the bradykinesia score is zero while the dyskinesia score is 2 or less.
Statistical analyses: Data derived from assessment of duration and quality of on-time were plotted as mean±s.e.m. […] Data for measures of parkinsonian disability and dyskinesia were graphed, where appropriate, as median scores alone (time course) or box and whisker plots (cumulated totals). Time course data for parkinsonian disability and dyskinesia were first ranked within each animal across all treatments using Excel's RANKAVG function. […]

D2R [2] = molecular target: T1, D2R (Rattus norvegicus, UniProt P61169); details: cited from earlier work
σ1R [3] = molecular target: T2, σ1R (Rattus norvegicus, UniProt Q9R0C9); details: 3 mg/kg PO; cited from earlier work
σ1R [4] = molecular target: T3, σ1R (Homo sapiens, UniProt Q99720); assay: in vivo; details: read-out: % σ1R occupancy
σ1R [5] = molecular target: T3, σ1R; details: human 67.5 mg bid; based on human PET data and PK profile
σ1R [6] = molecular target: T2, σ1R; assay: in vivo; details: po, read-out: % σ1R occupancy
Excerpt: (§1) NHP σ1R occupancy data are extrapolated from in vitro binding investigations with 3H-fluspidine, known and specific σ1R tracer, against human σ1R.

D2R [7] = molecular target: T1, D2R; assay: in vivo; details: po, read-out: % D2R occupancy
Excerpt: as §1

σ1R [8] = molecular target: T3, σ1R; assay: in vivo
Excerpt: as §1

[9] = study 2, 30 mg/kg, cumulated 0-2 h

T1 sequence (P61169 whole entry): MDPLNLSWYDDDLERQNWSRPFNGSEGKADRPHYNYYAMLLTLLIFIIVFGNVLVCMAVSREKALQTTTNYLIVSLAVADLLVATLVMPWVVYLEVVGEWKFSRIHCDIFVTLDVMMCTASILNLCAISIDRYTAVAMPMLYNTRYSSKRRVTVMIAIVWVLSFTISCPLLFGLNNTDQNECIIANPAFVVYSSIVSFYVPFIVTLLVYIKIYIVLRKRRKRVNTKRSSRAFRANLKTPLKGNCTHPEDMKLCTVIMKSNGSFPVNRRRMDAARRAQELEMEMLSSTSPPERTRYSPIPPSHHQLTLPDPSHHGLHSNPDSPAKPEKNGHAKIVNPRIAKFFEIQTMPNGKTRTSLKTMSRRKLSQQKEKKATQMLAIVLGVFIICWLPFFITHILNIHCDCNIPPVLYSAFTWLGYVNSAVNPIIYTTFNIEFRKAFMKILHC
T3 sequence (Q99720 whole entry): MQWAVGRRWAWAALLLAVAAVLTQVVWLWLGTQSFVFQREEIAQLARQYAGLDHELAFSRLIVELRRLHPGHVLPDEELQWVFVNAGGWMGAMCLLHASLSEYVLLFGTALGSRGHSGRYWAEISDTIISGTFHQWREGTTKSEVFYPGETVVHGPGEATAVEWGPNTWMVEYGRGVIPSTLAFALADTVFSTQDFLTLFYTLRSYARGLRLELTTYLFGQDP
T2 sequence (Q9R0C9 whole entry): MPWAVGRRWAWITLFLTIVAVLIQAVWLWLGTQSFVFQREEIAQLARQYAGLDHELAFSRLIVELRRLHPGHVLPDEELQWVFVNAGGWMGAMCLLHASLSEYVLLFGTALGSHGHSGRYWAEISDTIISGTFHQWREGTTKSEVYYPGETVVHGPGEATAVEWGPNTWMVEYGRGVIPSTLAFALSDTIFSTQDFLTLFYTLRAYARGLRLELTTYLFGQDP

receptor occupancy at 45 mg (σ1R [4]): > 90% | receptor occupancy at 90 mg (σ1R [4]): > 90% | receptor occupancy at 150 mg (σ1R [4]): > 90% | S1R occupancy (estimated) (σ1R [5]): fully occupy the S1Rs | receptor occupancy at 60 mg/kg (σ1R [6]): > 85% | receptor occupancy at 60 mg/kg (D2R [7]): 45% | % σ1R occupancy (σ1R [8]; NHP, 15 mg/kg PO, extrapolated from in vitro binding, 15 mg/kg): >80% | receptor occupancy at 7 mg/kg (σ1R [8]; po, read-out: % σ1R occupancy, NHP, 7 mg/kg PO, extrapolated from in vitro binding): 60 to 80% | receptor occupancy at 15 mg/kg (σ1R [8]; po, read-out: % σ1R occupancy, NHP, 15 mg/kg PO, extrapolated from in vitro binding): > 85% | receptor occupancy at 20 mg/kg (σ1R [8]; po, read-out: % σ1R occupancy, NHP, 20 mg/kg PO, extrapolated from in vitro binding): > 80% | receptor occupancy at 30 mg/kg (σ1R [8]; po, read-out: % σ1R occupancy, NHP, 30 mg/kg PO, extrapolated from in vitro binding): > 80% | receptor occupancy at 30 mg/kg (σ1R [8]; read-out: S1R occupancy (expected), high, effective dose (30 mg/kg, or 20 mg/kg in study 1)): > 80% | receptor occupancy at 20 mg/kg (σ1R [8]; read-out: S1R occupancy (expected), low, ineffective doses (7 and 15 mg/kg (study 1), 20 mg/kg in study 2)): > 80%
SMILES: CCCN1CCC(c2cccc(S(C)(=O)=O)c2)CC1 [pridopidine, 4-(3-(methylsulfonyl)phenyl)-1-propylpiperidine]
Dyskinesia (time course), significance cf. LDh-vehicle ([1]; 20 mg/kg + LDh, hr 1): * (*/**/*** represents P < 0.05, P < 0.01 or P < 0.001 cf. vehicle-treatment) | L-DOPA induced Dystonia (time course), significance cf. LDh-vehicle ([1]; 20 mg/kg + LDh, hr 1): * (*/**/*** represents P < 0.05, P < 0.01 or P < 0.001 cf. vehicle-treatment) | Dyskinesia (time course), significance cf. LDh-vehicle ([1]; 30 mg/kg + LDh, hr 1): ** (*/**/*** represents P < 0.05, P < 0.01 or P < 0.001 cf. vehicle-treatment) | L-DOPA induced Dystonia (time course), significance cf. LDh-vehicle ([1]; 30 mg/kg + LDh, hr 1): ** (*/**/*** represents P < 0.05, P < 0.01 or P < 0.001 cf. vehicle-treatment) | Dyskinesia (time course), significance cf. LDh-vehicle ([1]; 30 mg/kg + LDh, hr 2): *** (*/**/*** represents P < 0.05, P < 0.01 or P < 0.001 cf. vehicle-treatment) | L-DOPA induced Dystonia (time course), significance cf. LDh-vehicle ([1]; 30 mg/kg + LDh, hr 2): *** (*/**/*** represents P < 0.05, P < 0.01 or P < 0.001 cf. vehicle-treatment) | L-DOPA induced Dystonia (time course), significance cf. LDh-vehicle ([1]; 30 mg/kg + LDh, hr 3): * (*/**/*** represents P < 0.05, P < 0.01 or P < 0.001 cf. vehicle-treatment) | LID ([1]; MPTP-lesioned NHPs, high-dose): significant and meaningful decrease | LID ([1]; PD NHP model, low doses): ineffective | total duration of on-time or extent of anti-parkinsonian benefit of L-DOPA ([1]; study 1): absence of any change | anti-parkinsonian benefit afforded by L-DOPA ([1]; study 1, 7 mg/kg, first two hours of observation): modest decrease | total duration of on-time ([1]; study 2, 0-6 h): no change | median level of dyskinesia ([1]; study 2, 20 mg/kg, first hour): between moderate and marked | median level of dystonia ([1]; study 2, 20 mg/kg, first hour): between moderate and marked | 'bad' quality on-time ([1]; study 2, 30 mg/kg): 66 min | decrease in 'bad' quality on-time compared to vehicle ([1]; study 2, 30 mg/kg): 60% | median level of dyskinesia [1, 9]: below mild (non-disabling) | median level of dystonia [1, 9]: below mild (non-disabling) | reduction of median levels of dyskinesia compared to LDh-vehicle [1, 9]: 71% | reduction of median levels of dystonia compared to LDh-vehicle [1, 9]: 72% | median level of dyskinesia ([1]; study 2, 30 mg/kg, first and second hours): mild to moderate | median level of dystonia ([1]; study 2, 30 mg/kg, first to third hours): mild to moderate | proportion of on-time of 'good' quality cf. LDh-vehicle ([1]; study 2, any dose): no difference | % D2R occupancy (D2R [2]; 3 mg/kg PO): 0% | % D2R occupancy (D2R [2]; 15 mg/kg PO): 0% | % σ1R occupancy (σ1R [3]): 60%
